# Patent publication US5043450A, “8-alkoxyquinolonecarboxylic acid and salts thereof” (priority 1986, dated 1991)
# Columns and labels:
# Format in all cases: cell-based
# [1] = tested on: Propionibacterium acens 11828; assay: Antibacterial spectra, MIC
# [2] = tested on: S. aureus Smith; assay: Antibacterial spectra, MIC; conditions: Staphylococcus aureus; 10^6 cells/ml; Gram +; read-out: MIC
# [3] = tested on: Salmonella enteritidis IID 604; assay: Antibacterial spectra, MIC; conditions: Salmonella enterica; 10^6 cells/ml; Gram -; read-out: MIC
# [4] = tested on: P. aeruginosa IID 1210; assay: Antibacterial spectra, MIC; conditions: Pseudomonas aeruginosa, IID1210
# [5] = tested on: Acinetobacter anitratus IID 876; assay: Antibacterial spectra, MIC; conditions: Acinetobacter calcoaceticus, IID876; 10^6 cells/ml; Gram -; read-out: MIC
# [6] = tested on: K. pneumoniae 1-220S; assay: Antibacterial spectra, MIC; conditions: Klebsiella pneumoniae, 1220S; 10^6 cells/ml; Gram -; read-out: MIC
# [7] = tested on: Bacteroides fragilis GM 7000; assay: Antibacterial spectra, MIC; conditions: GM7000, 10^6 cells/ml, Gram -, read-out: MIC
# [8] = tested on: P. aeruginosa IFO 12689; assay: Antibacterial spectra, MIC; conditions: Pseudomonas aeruginosa, IFO12689; 10^6 cells/ml; Gram -; read-out: MIC
# [9] = tested on: Pst. micros UPI 5464-1; assay: Antibacterial spectra, MIC; conditions: Parvimonas micra, UPI54641; 10^6 cells/ml; Gram +; read-out: MIC
# [10] = tested on: B. fragilis 0558; assay: Antibacterial spectra, MIC; conditions: Bacteroides fragilis
# [11] = tested on: B. fragilis 25285; assay: Antibacterial spectra, MIC; conditions: Bacteroides fragilis
# [12] = tested on: Fusobacterium mortiferum 4249; assay: Antibacterial spectra, MIC
# [13] = tested on: Clostridium difficile I-E; assay: Antibacterial spectra, MIC; conditions: Clostridioides difficile
# [14] = tested on: B. distasonis 8503; assay: Antibacterial spectra, MIC; conditions: Parabacteroides distasonis, 10^6 cells/ml, Gram -, read-out: MIC
# [15] = tested on: Peptococcus magnus KY 017; assay: Antibacterial spectra, MIC; conditions: Finegoldia magna, KY017; 10^6 cells/ml; Gram +; read-out: MIC
# [16] = tested on: B. vulgatus KYA 29327; assay: Antibacterial spectra, MIC; conditions: Phocaeicola vulgatus, KYA29327; 10^6 cells/ml; Gram -; read-out: MIC
# [17] = tested on: Serratia marcescens IID 618; assay: Antibacterial spectra, MIC; conditions: IID618, 10^6 cells/ml, Gram -, read-out: MIC
# [18] = tested on: Enterobacter cloacae IID 977; assay: Antibacterial spectra, MIC; conditions: IID977, 10^6 cells/ml, Gram -, read-out: MIC
# [19] = tested on: C. perfringens KYA 13123; assay: microbe, parasite or virus in culture; conditions: Clostridium perfringens, KYA13123
# [20] = tested on: Shigella sonnei IID 969; assay: Antibacterial spectra, MIC; conditions: IID969, 10^6 cells/ml, Gram -
# Experimental: (§1) The antibacterial test was carried out according to the method designated by Japan Society of Chemotherapy.
# [21] = tested on: E. coli ML 4707; assay: Antibacterial spectra, MIC; conditions: Escherichia coli, ML4707; 10^6 cells/ml; Gram -
# Experimental: as §1
# [22] = tested on: Proteus vulgaris IFO 3167; assay: Antibacterial spectra, MIC; conditions: IFO3167, 10^6 cells/ml, Gram -
# Experimental: as §1
# [23] = tested on: F. varium KYA 8501; assay: Antibacterial spectra, MIC; conditions: Fusobacterium varium, KYA8501
# [24] = tested on: S. epidermidis IID 866; assay: Antibacterial spectra, MIC; conditions: Staphylococcus epidermidis, IID866; 10^6 cells/ml; Gram +; read-out: MIC
# [25] = tested on: Pseudomonas aeruginosa V-1; assay: Antibacterial spectra, MIC; conditions: V1, 10^6 cells/ml, Gram -, read-out: MIC
# [26] = tested on: Veillonella parvula KYA 10790; assay: Antibacterial spectra, MIC; conditions: KYA10790, 10^6 cells/ml, Gram -, read-out: MIC
# [27] = tested on: Eubacterium lentum GAI 5242; assay: Antibacterial spectra, MIC; conditions: Eggerthella lenta, GAI5242; 10^6 cells/ml; Gram +; read-out: MIC
# [28] = tested on: S. aureus IID 670 (Terajima); assay: Antibacterial spectra, MIC; conditions: Staphylococcus aureus, IID670; 10^6 cells/ml; Gram +; read-out: MIC
# [29] = tested on: P. mirabilis IID 994; assay: Antibacterial spectra, MIC; conditions: Proteus mirabilis, IID994; 10^6 cells/ml; Gram -; read-out: MIC
# [30] = tested on: Alcaligenes faecalis 0114002; assay: Antibacterial spectra, MIC; conditions: 10^6 cells/ml, Gram -, read-out: MIC
# [31] = tested on: Staphylococcus aureus 209 P; assay: Antibacterial spectra, MIC; conditions: 10^6 cells/ml, Gram +, read-out: MIC
# [32] = tested on: P. maltophilia GIFU 2491; assay: Antibacterial spectra, MIC; conditions: Stenotrophomonas maltophilia, GIFU2491
# [33] = tested on: Citrobacter freundii IID 976; assay: Antibacterial spectra, MIC; conditions: IID976, 10^6 cells/ml, Gram -, read-out: MIC
# [34] = tested on: Klebsiella pneumoniae KY(GN)6445; assay: Antibacterial spectra, MIC; conditions: 10^6 cells/ml, Gram -, read-out: MIC
# [35] = tested on: B. thetaiotaomicron (0661); assay: Antibacterial spectra, MIC; conditions: Bacteroides thetaiotaomicron; 10^6 cells/ml; Gram -; read-out: MIC
# [36] = tested on: Escherichia coli NIHJ JC-2; assay: Antibacterial spectra, MIC; conditions: NIHJJC2, 10^6 cells/ml, Gram -, read-out: MIC
# [37] = tested on: P. cepacia GIFU 518; assay: Antibacterial spectra, MIC; conditions: Burkholderia cepacia, GIFU518; 10^6 cells/ml; Gram -; read-out: MIC
# [38] = tested on: Morganella morganii IID 602; assay: Antibacterial spectra, MIC; conditions: IID602, 10^6 cells/ml, Gram -, read-out: MIC
# [39] = tested on: Yersinia enterocolitica IID 981; assay: Antibacterial spectra, MIC; conditions: IID981, 10^6 cells/ml, Gram -, read-out: MIC
# [40] = tested on: Bacilus subtilis PCI 219; assay: Antibacterial spectra, MIC; conditions: Bacillus subtilis, PCI219; 10^6 cells/ml; Gram +; read-out: MIC
# [41] = tested on: C. ramosum; assay: Antibacterial spectra, MIC; conditions: Thomasclavelia ramosa
# [42] = tested on: Peptostreptococcus anaerobius KYA 27337; assay: Antibacterial spectra, MIC; conditions: KYA27337
# [43] = tested on: F. necrophorum S-45; assay: Antibacterial spectra, MIC; conditions: Fusobacterium necrophorum, S45
# [44] = tested on: E. coli ATCC 10536; assay: Antibacterial spectra, MIC; conditions: Escherichia coli, ATCC10536; 10^6 cells/ml; Gram -; read-out: MIC
compound,measurement,setting,value
COc1c(N2CCNCC2)c(F)cc2c(=O)c(C(=O)O)cn(C3CC3)c12 [Exp. 1],MIC,[1],3.13 µg/mL
same,MIC,[2],0.1 µg/mL
same,MIC,[3],0.05 µg/mL
same,MIC,[4],0.39 µg/mL
same,MIC,[5],0.1 µg/mL
same,MIC,[6],0.05 µg/mL
same,MIC,[7],0.78 µg/mL
same,MIC,[8],0.78 µg/mL
same,MIC,[9],0.2 µg/mL
same,MIC,[10],0.39 µg/mL
same,MIC,[11],0.39 µg/mL
same,MIC,[12],0.39 µg/mL
same,MIC,[13],3.13 µg/mL
same,MIC,[14],1.56 µg/mL
same,MIC,[15],0.2 µg/mL
same,MIC,[16],0.78 µg/mL
same,MIC,[17],0.05 µg/mL
same,MIC,[18],0.05 µg/mL
same,MIC,[19],0.39 µg/mL
same,MIC,[20],0.0125 µg/mL
same,MIC,[21],0.025 µg/mL
same,MIC,[22],0.0125 µg/mL
same,MIC,[23],3.13 µg/mL
same,MIC,[24],0.1 µg/mL
same,MIC,[25],0.1 µg/mL
same,MIC,[26],0.2 µg/mL
same,MIC,[27],0.2 µg/mL
same,MIC,[28],0.1 µg/mL
same,MIC,[29],0.025 µg/mL
same,MIC,[30],0.2 µg/mL
same,MIC,[31],0.1 µg/mL
same,MIC,[32],0.39 µg/mL
same,MIC,[33],0.025 µg/mL
same,MIC,[34],0.025 µg/mL
same,MIC,[35],1.56 µg/mL
same,MIC,[36],≤ 0.0063 µg/mL
same,MIC,[37],0.78 µg/mL
same,MIC,[38],0.05 µg/mL
same,MIC,[39],0.05 µg/mL
same,MIC,[40],0.025 µg/mL
same,MIC,[41],3.13 µg/mL
same,MIC,[42],0.39 µg/mL
same,MIC,[43],0.39 µg/mL
same,MIC,[44],0.025 µg/mL
